# Data taken from patent US20120004281A1, “RNA Interference Mediated Inhibition of the Nerve Growth Factor Beta Chain (NGFB) Gene Expression Using Short Interfering Nucleic Acid (siNA)” (Merck Sharp & Dohme Corp, priority 2009, published 2012).
# [invAb] = inverted abasic unit; m = 2'-O-methyl; r = 2'-OH (RNA); f = 2'-fluoro
# Tests used:
# NGFβ mRNA = NGFβ mRNA knock-down in Calu-1 cells (RNAiMax transfection, Taqman RT-PCR); format: cell-based, human; conditions: for Primary Screen % KD (10 nM) / IC50 / Maximum % KD in DRC: human CaLu-1 cells; for Primary Screen % KD (10 nM): mean ± S.D. of four experiments; for IC50 / Maximum % KD in DRC: dose response 0.083fM to 30 nM, mean ± S.D.; for % KD in CaLu-1 Cells: human Calu-1 cells, 10 nM siNA, 24 hrs post-transfection, relative to non-targeting control, normalized to GAPDH
# NGFβ protein = assay: NGFβ ELISA (protein knock-down in Calu-1 cells); format: cell-based, human; conditions: for Max % Protein Reduction at 3 nM: 3 nM siNA, relative to negative universal control siNA (UC3); for IC50: 200 fM to 3 nM siNA, ELISA
# Description: In a 96-well plate, 5,000 Calu-1cells/well were seeded in 100 uL of complete growth media and incubated overnight at 37° C. with 5% CO2. The cells were transfected with siNAs using RNAiMax (Invitrogen, Cat# 13778-150); final concentration of siNAs is 3e-09, le-09, 3e-10, le-10, 4e-11, le-11, 4e-12, le-12, 5e-13, and 2e-13 M. The amount of RNAiMax in each well is 0.3 uL. The siNAs were incubated for 24 hours. The medium was replaced with 100 uL of fresh complete growth medium. The cells were incubated for 48 hours. 80 uL of the medium from each well was collected into a separate 96-well plate. The samples were frozen immediately at −80° C. until ready the assay was ready to be performed.
# ELISA was performed using NGF Emax® ImmunoAssay System (Promega, Cat # G7630) according to the manufaturer's instructions. The samples were diluted 1:2 with the blocking buffer provided in the kit. The samples absorbance was recorded at 450 nm on a SpectraMax plate reader (Molecular Devices) within 30 minutes of stopping the reaction.
# Sigmaplot was used to determine IC50 values for each of the tested siRNAs using a sigmoidal dose response calculation. The maximum percentage of protein knock-down was determined by dividing the pg/mL at each treated siNA concentration by the pg/mL of the control treated cells at the same concentration of siNA. This number was then converted to a percentage to give the percent of protein remaining.
# Various siNAs were also evaluated for their potential to knock-down NGFβ protein using an ELISA assay. Six siNAs were tested in an NGFβ ELISA assay across a range of concentrations of siNAs (200 fM to 3 nM) and the level of reduction of protein was determined relative to treatment of the cells with identical concentrations of the negative universal control siNA (UC3) (see Table 6).
# NGF = molecular target: T1, NGF (Homo sapiens, UniProt P01138); conditions: 440 patients, moderate-severe OA knee pain, 100 or 200 mcg/kg; 26% of patients given placebo; cited from earlier work
# T1 construct: host or cells: patients (in vivo)
# T1 sequence (P01138 122-241): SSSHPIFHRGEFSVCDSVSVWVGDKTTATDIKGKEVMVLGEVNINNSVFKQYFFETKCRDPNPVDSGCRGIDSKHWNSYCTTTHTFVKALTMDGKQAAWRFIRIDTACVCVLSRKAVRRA
Substance,Primary Screen % KD (10 nM) (NGFβ mRNA),IC50 (NGFβ mRNA),Maximum % KD in DRC (NGFβ mRNA),% KD in CaLu-1 Cells (NGFβ mRNA),Max % Protein Reduction at 3 nM (NGFβ protein),IC50 (NGFβ protein),patients with 50% decline in pain (NGF)
"25424-DC: siNA duplex, NGFβ target site 176; sense B AuGuuGuucuAcAcucuGA TTB (SEQ ID NO: 73), antisense UCAGAGuGuAGAAcAAcAuUU (SEQ ID NO: 74) (sense AUGUUGUUCUACACUCUGATT; antisense UCAGAGUGUAGAACAACAUUU; sense: DNA at AGT, 2'-fluoro at CU, [invAb] at 5' end, 3' end, backbone not given here; antisense: sugars from the 5' end rrrmmmfmfmmmmfmmfmfmm, backbone not given here)",82 ± 9%,50 ± 55 pM,72 ± 5%,78%,85%,108 pM,
"25425-DC: siNA duplex, NGFβ target site 181; sense B GuucuAcAcucuGAucAcA TTB (SEQ ID NO: 75), antisense UGUGAucAGAGuGuAGAAcUU (SEQ ID NO: 76) (sense GUUCUACACUCUGAUCACATT; antisense UGUGAUCAGAGUGUAGAACUU; sense: DNA at AGT, 2'-fluoro at CU, [invAb] at 5' end, 3' end, backbone not given here; antisense: sugars from the 5' end rrrmmffmmmmfmfmmmmfmm, backbone not given here)",83 ± 6%,20 ± 19 pM,72 ± 1%,80%,87%,74 pM,
Tanezumab,,,,,,,approximately 75%
